According to patent US9856216B2, “Compounds as TNIK, IKKε and TBK1 inhibitors and pharmaceutical composition comprising same” (GREEN CROSS CORPORATION, priority 2015, dated 2018):
Where a name gives a salt, the structure may show the parent alone.

target: T1, TNIK (Homo sapiens, UniProt Q9UKE5); assay: ADP-Glo Kinase Assay, inhibition activity on TNIK; assay type: biochemical; conditions: read-out: TNIK
T1 construct: purchased Promega V4158
Procedure: The inhibition activities on TNIK, IKKε and TBK1 were measured by a luminometer, TNIK/IKKε/TBK1 Kinase Enzyme System (Promega, Ca# V4158; Invitrogen, PR8031B, Promega, Ca# V3991) and ADP-Glo Kinase Assay using ADP-Glo™ Kinase Analysis Kit (Promega, Ca# V9101) and a kinase reaction buffer [40 mM Tris(pH 7.5), 20 mM MgCl2, 0.1 mg/mL BSA] in accordance with the manufacturer's protocol.

T1 sequence (Q9UKE5 1-367 limits assumed): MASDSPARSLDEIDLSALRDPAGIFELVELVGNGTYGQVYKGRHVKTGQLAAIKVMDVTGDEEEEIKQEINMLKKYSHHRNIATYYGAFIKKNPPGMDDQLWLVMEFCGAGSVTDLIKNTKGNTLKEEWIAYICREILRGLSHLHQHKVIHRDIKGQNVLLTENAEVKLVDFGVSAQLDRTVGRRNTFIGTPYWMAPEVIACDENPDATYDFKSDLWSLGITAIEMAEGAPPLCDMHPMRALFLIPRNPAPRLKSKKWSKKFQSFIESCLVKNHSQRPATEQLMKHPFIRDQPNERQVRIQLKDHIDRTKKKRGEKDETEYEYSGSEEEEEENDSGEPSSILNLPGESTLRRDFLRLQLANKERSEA

| IC50 [nM] | SMILES |
| --- | --- |
| 16700 | COc1ccccc1NC(=O)Nc1ccc(-c2ccccc2)c2c1C(=O)NC2 [Example 233, 1-(2-Methoxyphenyl)-3-(3-oxo-7-phenylisoindolin-4-yl)urea] |
| 450 | COCCNc1ccc(C(=O)Nc2ccc(-c3ccco3)c3c2C(=O)NC3)cc1 [Example 288, N-(7-(furan-2-yl)-3-oxoisoindolin-4-yl)-4-((2-methoxyethyl)amino)benzamide] |
| > 20000 | COc1ccc(C(=O)Nc2ccc(-c3ccccc3)c3c2C(=O)NC3)c(OC)c1 [Example 101, 2,4-Dimethoxy-N-(3-oxo-7-phenylisoindolin-4-yl)benzamide] |
| 360 | O=C(Nc1ccc(-c2ccco2)c2c1C(=O)NC2)c1ccc(NCCN2CCCCC2)cc1 [Example 289, N-(7-(furan-2-yl)-3-oxoisoindolin-4-yl)-4-((2-(piperidin-1-yl)ethyl)amino)benzamide] |
| 580 | CCNC(=O)Nc1ccc(-c2ccccc2)c2c1C(=O)NC2 [Example 236, 1-Ethyl-3-(3-oxo-7-phenylisoindolin-4-yl)urea] |
| > 20000 | CCCc1ccc(NC(=O)c2ccc(F)cc2)c2c1CNC2=O [Example 36, 4-fluoro-N-(3-oxo-7-propylisoindolin-4-yl)benzamide] |
| > 20000 | O=C(Nc1ccc(-c2ccc3ncccc3c2)c2c1C(=O)NC2)c1ccc(F)cc1 [Example 214, 4-Fluoro-N-(3-oxo-7-(quinolin-6-yl)isoindolin-4-yl)benzamide] |
| 1600 | COc1ccccc1-c1ccc(NC(=O)c2ccc(F)cc2)c2c1CNC2=O [Example 141, 4-Fluoro-N-(7-(2-methoxyphenyl)-3-oxoisoindolin-4-yl) benzamide] |
| 150 | O=C(Nc1ccc(Nc2ccccc2)c2c1C(=O)NC2)c1ccc(NCCN2CCCCC2)cc1 [Example 439, N-(3-oxo-7-(phenylamino)isoindolin-4-yl)-4-((2-(piperidin-1-yl)ethyl)amino)benzamide] |
| 97 | O=C(Nc1ccc(Nc2ccccc2)c2c1C(=O)NC2)c1ccc(NCCO)cc1 [Example 487, 4-((2-Hydroxyethyl)amino)-N-(3-oxo-7-(phenylamino)isoindolin-4-yl)benzamide] |
| 170 | O=C(Nc1ccc(-c2cccc(F)c2F)c2c1C(=O)NC2)c1ccc(NCCCN2CCCC2)cc1 [Example 366, N-(7-(2,3-difluorophenyl)-3-oxoisoindolin-4-yl)-4-((3-(pyrrolidin-1-yl)propyl)amino)benzamide hydrochloride] |
| > 20000 | O=C(Nc1ccc(C(=O)N2CCCC2)c2c1C(=O)NC2)c1ccc(NCCN2CCCC2)cc1 [Example 392, N-(3-oxo-7-(pyrrolidine-1-carbonyl)isoindolin-4-yl)-4-((2-(pyrrolidin-1-yl)ethyl)amino)benzamide] |
| 960 | CN(C)CCCNc1ccc(C(=O)Nc2ccc(-c3ccccc3O)c3c2C(=O)NC3)cc1 [Example 351, 4-((3-(Dimethylamino)propyl)amino)-N-(7-(2-hydroxyphenyl)-3-oxoisoindolin-4-yl)benzamide] |
| 10900 | COc1ccccc1-c1ccc(N)c2c1C(=O)NC2=O [Example 272, 4-Amino-7-(2-methoxyphenyl)isoindolin-1,3-dione] |
| 6100 | Cc1ccc(NC(=O)c2ccccc2)c2c1CNC2=O [Example 37, N-(7-methyl-3-oxoisoindolin-4-yl)benzamide] |
| 1200 | CSc1ccc(-c2ccc(NC(=O)c3ccccc3)c3c2CNC3=O)cc1 [Example 41, N-(7-(4-(methylthio)phenyl)-3-oxoisoindolin-4-yl)benzamide] |
| 210 | O=C(Nc1ccc(Nc2ccccc2)c2c1C(=O)NC2)c1ccc(NCCCN2CCCC2=O)cc1 [Example 459, N-(3-oxo-7-(phenylamino)isoindolin-4-yl)-4-((3-(2-oxopyrrolidin-1-yl)propyl)amino)benzamide] |
| 200 | NCCCNc1ccc(C(=O)Nc2ccc(Nc3ccccc3)c3c2C(=O)NC3)cc1 [Example 486, 4-((3-Aminopropyl)amino)-N-(3-oxo-7-(phenylamino)isoindolin-4-yl)benzamide] |
